Results taken from PubChem BioAssay AID1963965 (Molecular Pharmacology Branch, DTP, NCI, 2024).
One block for each compound: values may come before it.

Test system: 996289-038-R-J1-PDC spheroid viability
Assay: Anticancer human tumor 996289-038-R-J1-PDC patient-derived colon adenocarcinoma cell line growth inhibition [PI3K]
Details: spheroids with HUVEC and MSC; for IC50: curve of first compound; for viability, T/C: stronger effect = lower value
From the text: Combinatorial screen of targeted agents with the PI3K inhibitors inavolisib, alpelisib, duvelisib, and copanlisib in multi-cell type tumor spheroids
A high-throughput screen of multi-cell type tumor spheroids was designed to identify active combinations of targeted small molecules and PI3K pathway inhibitors. Complex spheroids include a stromal component modeled by human endothelial cells (HUVEC) and fibroblasts modeled by human mesenchymal stem cells (MSCs). The concentration ranges selected for each drug and investigational agent were based upon clinically achievable concentrations if the clinical Cmax of the agent was known.
Compounds. The drugs and investigational agents: inavolisib (NSC800729), alpelisib (NSC765974), duvelisib (NSC772469), copanlisib (NSC816437), ipatasertib (NSC767898), afuresertib (NSC778305), talazoparib (NSC767125), sapanisertib (NSC764658), selumetinib (NSC741078), tovorafenib (DAY101, NSC766906), vemurafenib (NSC761431), ravoxertinib (NSC781343), sotorasib (NSC818433), MRTX1133 (NSC 836407), abemaciclib (NSC 768073), palbociclib (NSC758247), venetoclax (NSC 766270), SY5609 (NSC837396), enzalutamide (NSC755605), and darolutamide (NSC825331), were obtained from the National Cancer Institute (NCI) Developmental Therapeutics Program Chemical Repository. The FDA-approved anticancer drug set is available from the NCI Developmental Therapeutics Program. […] The stock solutions were prepared in dimethyl sulfoxide (DMSO, Sigma-Aldrich, St. Louis, MO, cat. D2650) at 800-fold the tested concentration and stored at -70 degrees C prior to their use. All drugs and investigational agents were tested over a range starting from a high concentration at or near the clinical Cmax and decreasing in half-log increments. If the clinical Cmax for an agent had not been determined, the highest concentration tested was 10 microM.
Cell Culture. All cells were maintained in an incubator at 37 degrees C and 5% CO2 with 95% humidity. The PDC lines were cultured according to standard operating procedures established by the NCI PDMR (https://pdmr.cancer.gov/sops/default.htm). All PDCs were thawed and cultured in Matrigel-coated flasks prepared with a working solution of 1X Ham's F-12 nutrient mix, without supplementation (Invitrogen, Waltham, MA, cat. 11765054), 100 U/mL penicillin-streptomycin (Invitrogen, cat. 15140122), and 2.5% Matrigel (Corning Inc., Corning, NY, cat. 354248) for the first three passages. The 354836-022-R-J1-PDC, 475296-252-R-J1-PDC, and 997726-040-R-J2-PDC lines were cultured in 6A media, which includes advanced DMEM/F-12 (Thermo Fisher Scientific, cat. 12634028), 10 mM HEPES (Thermo Fisher Scientific, cat. 15630080), 1X GlutaMAX supplement (Thermo Fisher Scientific, cat. 35050061), 0.1 mg/mL primocin (InvivoGen, San Diego, CA, cat. ant-pm-2), 10% defined fetal bovine serum, heat inactivated (HyClone Laboratories Inc., Logan, UT, cat. SH30070.03HI), 50% L-WRN conditioned media (ATCC, cat. CRL-3276), 1.25 mM N-Acetyl-L-cysteine (Sigma-Aldrich, cat. A9165), 10 mM nicotinamide (Sigma-Aldrich, cat. N0636), 1X B-27 supplement (Thermo Fisher Scientific, cat. 17504044), 1X N-2 supplement (Thermo Fisher Scientific, cat. 17502048), and 10 microM Y-27632 dihydrochloride (Tocris Bioscience, Bristol, United Kingdom, cat. 1254). The 624824-186-R-J2-PDC line was cultured in 6C/Colon 1B media, which includes all 6A media components plus 50 ng/mL human EGF recombinant protein (Thermo Fisher Scientific, cat. PHG0311). […]

[1] = second compound 0.0316 µM, first compound 0.0316 µM
[2] = second compound 0.0316 µM, first compound 0.1 µM
[3] = second compound 0.0316 µM, first compound 0.316 µM
[4] = second compound 0.0316 µM, first compound 1 µM
[5] = second compound 0.0316 µM, first compound 3.16 µM
[6] = second compound 0.0316 µM, first compound 10 µM
[7] = second compound 0.1 µM, first compound 0.0316 µM
[8] = second compound 0.1 µM, first compound 0.1 µM
[9] = second compound 0.1 µM, first compound 0.316 µM
[10] = second compound 0.1 µM, first compound 1 µM
[11] = second compound 0.1 µM, first compound 3.16 µM
[12] = second compound 0.1 µM, first compound 10 µM
[13] = second compound 0.316 µM, first compound 0.0316 µM
[14] = second compound 0.316 µM, first compound 0.1 µM
[15] = second compound 0.316 µM, first compound 0.316 µM
[16] = second compound 0.316 µM, first compound 1 µM
[17] = second compound 0.316 µM, first compound 3.16 µM
[18] = second compound 0.316 µM, first compound 10 µM
[19] = second compound 1 µM, first compound 0.0316 µM
[20] = second compound 1 µM, first compound 0.1 µM
[21] = second compound 1 µM, first compound 0.316 µM
[22] = second compound 1 µM, first compound 1 µM
[23] = second compound 1 µM, first compound 3.16 µM
[24] = second compound 1 µM, first compound 10 µM
[25] = second compound 3.16 µM, first compound 0.0316 µM
[26] = second compound 3.16 µM, first compound 0.1 µM
[27] = second compound 3.16 µM, first compound 0.316 µM
[28] = second compound 3.16 µM, first compound 1 µM
[29] = second compound 3.16 µM, first compound 3.16 µM
[30] = second compound 3.16 µM, first compound 10 µM
[31] = second compound 10 µM, first compound 0.0316 µM
[32] = second compound 10 µM, first compound 0.1 µM
[33] = second compound 10 µM, first compound 0.316 µM
[34] = second compound 10 µM, first compound 1 µM
[35] = second compound 10 µM, first compound 3.16 µM
[36] = second compound 10 µM, first compound 10 µM
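Further: spheroids exposed to compounds for seven days before viability read.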
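Wherever viability, T/C is given: luminescence used as a proxy for viable cell amount; percent viability relative to DMSO vehicle control as 100%.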

- IC50 (second compound 0.0316 µM): > 10 µM
- IC50 (second compound 0.1 µM): > 10 µM
- IC50 (second compound 0.316 µM): > 10 µM
- IC50 (second compound 1 µM): > 10 µM
- IC50 (second compound 3.16 µM): > 10 µM
- IC50 (second compound 10 µM): > 10 µM
SMILES: CC(Cn1ccc(-c2ccc(C#N)c(Cl)c2)n1)NC(=O)c1cc(C(C)O)[nH]n1 (centres undefined) + CC(Nc1ncnc2nc[nH]c12)c1cc2cccc(Cl)c2c(=O)n1-c1ccccc1
- viability, T/C [1]: 109%
- viability, T/C [2]: 89.9%
- viability, T/C [3]: 108%
- viability, T/C [4]: 110%
- viability, T/C [5]: 106%
- viability, T/C [6]: 101%
- viability, T/C [7]: 95.2%
- viability, T/C [8]: 97.3%
- viability, T/C [9]: 102%
- viability, T/C [10]: 101%
- viability, T/C [11]: 110%
- viability, T/C [12]: 91.5%
- viability, T/C [13]: 105%
- viability, T/C [14]: 99.2%
- viability, T/C [15]: 105%
- viability, T/C [16]: 93.9%
- viability, T/C [17]: 113%
- viability, T/C [18]: 91.3%
- viability, T/C [19]: 95.7%
- viability, T/C [20]: 96.2%
- viability, T/C [21]: 97.3%
- viability, T/C [22]: 99.3%
- viability, T/C [23]: 102%
- viability, T/C [24]: 106%
- viability, T/C [25]: 91.6%
- viability, T/C [26]: 92.7%
- viability, T/C [27]: 96.7%
- viability, T/C [28]: 90.6%
- viability, T/C [29]: 91.9%
- viability, T/C [30]: 84.7%
- viability, T/C [31]: 80.2%
- viability, T/C [32]: 81.8%
- viability, T/C [33]: 84.6%
- viability, T/C [34]: 91.5%
- viability, T/C [35]: 100%
- viability, T/C [36]: 89.8%

- IC50 (second compound 0.0316 µM): 9.83 µM
- IC50 (second compound 0.1 µM): 8.62 µM
- IC50 (second compound 0.316 µM): 8.31 µM
- IC50 (second compound 1 µM): 6.15 µM
- IC50 (second compound 3.16 µM): 4.84 µM
- IC50 (second compound 10 µM): < 0.0316 µM
SMILES: CC1(C)CCC(CN2CCN(c3ccc(C(=O)NS(=O)(=O)c4ccc(NCC5CCOCC5)c([N+](=O)[O-])c4)c(Oc4cnc5[nH]ccc5c4)c3)CC2)=C(c2ccc(Cl)cc2)C1 + Cc1nc(NC(=O)N2CCCC2C(N)=O)sc1-c1ccnc(C(C)(C)C(F)(F)F)c1
- viability, T/C [1]: 94%
- viability, T/C [2]: 91.8%
- viability, T/C [3]: 105%
- viability, T/C [4]: 110%
- viability, T/C [5]: 96.9%
- viability, T/C [6]: 49.3%
- viability, T/C [7]: 95.2%
- viability, T/C [8]: 102%
- viability, T/C [9]: 88.1%
- viability, T/C [10]: 102%
- viability, T/C [11]: 105%
- viability, T/C [12]: 42.8%
- viability, T/C [13]: 88.8%
- viability, T/C [14]: 84.9%
- viability, T/C [15]: 95.9%
- viability, T/C [16]: 93.2%
- viability, T/C [17]: 92.5%
- viability, T/C [18]: 42.1%
- viability, T/C [19]: 68.6%
- viability, T/C [20]: 83.4%
- viability, T/C [21]: 67.8%
- viability, T/C [22]: 82.6%
- viability, T/C [23]: 75.8%
- viability, T/C [24]: 31.6%
- viability, T/C [25]: 66.3%
- viability, T/C [26]: 60.9%
- viability, T/C [27]: 60.4%
- viability, T/C [28]: 61%
- viability, T/C [29]: 62.6%
- viability, T/C [30]: 29.3%
- viability, T/C [31]: 34.9%
- viability, T/C [32]: 41.8%
- viability, T/C [33]: 42.2%
- viability, T/C [34]: 54.4%
- viability, T/C [35]: 45.1%
- viability, T/C [36]: 15.4%
